From patent US9593305B2, “Differentiation of pluripotent stem cells” (Janssen Biotech, Inc., priority 2008, dated 2017)

System: H1 human embryonic stem cells
Experiment: Secondary assay: panel of compounds with growth factor combinations and muscimol, no activin A (Example 6, Table 5)
Format: cell-based
Conditions: for Cell Number, % of positive control / Cell Number, Average Total Cell Number / Sox17 Expression, % of positive control / Sox17 Expression, Average Total Intensity: no AA (with Wnt3a)
Procedure: Clusters of H1 human embryonic stem cells were grown on reduced growth factor […]™ (Invitrogen; Cat #356231)-coated tissue culture plastic. Cells were passaged using collagenase (Invitrogen; Cat #17104-019) treatment and gentle scraping, washed to remove residual enzyme, and plated with even dispersal at a ratio of 1:1 (surface area) on reduced growth factor […]™-coated 96-well black plates (Packard ViewPlates; PerkinElmer; Cat #6005182) using volumes of 100 μl/well. Cells were allowed to attach as clusters and then recover log phase growth over a 1 to 3 day period, feeding daily with MEF-conditioned medium supplemented with 8 ng/ml bFGF (R&D Systems; Cat #233-FB). Plates were maintained at 37° C., 5% CO2 in a humidified box throughout the duration of the assay. Stocks of growth factors purchased from R&D Systems were EGF (Cat #236-EG), FGF4 (Cat #235-F4), PDGF-A (Cat #221-AA), PDGF-D (Cat #1159-SB), PDGF-A/B (Cat #222-AB), and VEGF (Cat #293-VE). […] All growth factors were solubilized in PBS with 0.1% BSA (Sigma; Cat #A7888) and stored frozen at −80° C. […] Cat #D2650) and stored frozen at −80° C. Compounds were available as 5 mM stocks in 96-well plate format, solubilized in 100% DMSO and stored at −80° C. Compounds were further diluted to an intermediate concentration of 0.2 mM in 50 mM HEPES (Invitrogen; Cat #15630-080), 20% DMSO and stored at 4° C. All growth factors and inhibitors were prepared in a deep well, 96-well polypropylene plate, diluted to 5× intermediate stocks in DMEM:F12 base medium at the beginning of assay and stored at 4° C. A secondary screening assay was conducted, testing in triplicate and feeding on alternate days over the four-day assay timeframe. Assays were initiated by aspirating culture medium from each well followed by three washes in PBS to remove residual growth factors and serum. Test volumes of 80 μl per well were added back containing DMEM:F12 base medium (Invitrogen; Cat #11330-032) supplemented with 0.625% FCS (HyClone; […] All remaining growth factors were tested at a final assay concentration of 50 ng/ml (EGF, FGF4, PDGF-A, PDGF-A/B, VEGF). […] At the conclusion of four-days of culture, assay plates were washed twice with PBS, fixed with 4% paraformaldehyde (Alexis Biochemical; Cat #ALX-350-011) at room temperature for 20 minutes, then washed three times with PBS and permeabilized with 0.5% Triton X-100 (Sigma; Cat #T8760-2) for 20 minutes at room temperature. Cells were washed again three times with PBS and blocked with 4% chicken serum (Invitrogen; Cat #16110082) in PBS for 30 minutes at room temperature. Primary antibody (goat anti-human SOX17; R&D Systems; cat #AF1924) was diluted 1:100 in 4% chicken serum and added to each well for one hour at room temperature. Alexa Fluor 488 conjugated secondary antibody (chicken anti-goat IgG; Molecular Probes; Cat #AZ1467) was diluted 1:200 in PBS and added to each sample well after washing three times with PBS. To counterstain nuclei, 4 μg/ml Hoechst 33342 (Invitrogen; Cat #H3570) was added for ten minutes at room temperature. Plates were washed once with PBS and left in 100 μl/well PBS for imaging. Imaging was performed using an IN Cell Analyzer 1000 (GE Healthcare) utilizing the 51008bs dichroic for cells stained with Hoechst 33342 and Alexa Fluor 488. Exposure times were optimized from positive control wells and from untreated negative control wells stained with secondary antibody alone. Images from 15 fields per well were acquired to compensate for any cell loss during the bioassay and subsequent staining procedures. […] Segmentation for the nuclei was determined based on grayscale levels (baseline range 100-300) and nuclear size. Averages and standard deviations were calculated for each replicate data set. Total SOX17 protein expression was reported as total intensity or integrated intensity, defined as total fluorescence of the cell multiplied by the area of the cell. […]

[1] = EGF + FGF4 + PDGF-AB + Muscimol

O=C1CCN2CCN(CC2)Cc2cc(Cl)cc(c2)Nc2ncnc(n2)-c2cncc(c2)CCCN1 [Compound 34, 5-Chloro-1,8,10,12,16,22,26,32-octaazapentacyclo[24.2.2.1˜3.7˜0.1˜9,13˜0.1˜14.18˜]tritriaconta-3(33), 4,6,9(32), 10,12,14(31), 15,17-nonaen-23-one]
response with growth factors (cell numbers and SOX17 expression) (2.5 μM, all growth factor combinations tested, no activin A): significant synergistic responses with all growth factors tested | Cell Number, % of positive control (EGF): 124.89% | Cell Number, Average Total Cell Number (EGF): 13062 | Sox17 Expression, % of positive control (EGF): 17.39% | Sox17 Expression, Average Total Intensity (EGF): 2.78E+07 | Cell Number, % of positive control (EGF + FGF4): 125.58% | Cell Number, Average Total Cell Number (EGF + FGF4): 13133 | Sox17 Expression, % of positive control (EGF + FGF4): 76.85% | Sox17 Expression, Average Total Intensity (EGF + FGF4): 1.23E+08 | Cell Number, % of positive control (EGF + FGF4 + PDGF-A + Muscimol): 116.72% | Cell Number, Average Total Cell Number (EGF + FGF4 + PDGF-A + Muscimol): 12208 | Sox17 Expression, % of positive control (EGF + FGF4 + PDGF-A + Muscimol): 34.83% | Sox17 Expression, Average Total Intensity (EGF + FGF4 + PDGF-A + Muscimol): 5.56E+07 | Cell Number, % of positive control (EGF + FGF4 + PDGF-A + VEGF): 123.36% | Cell Number, Average Total Cell Number (EGF + FGF4 + PDGF-A + VEGF): 12901 | Sox17 Expression, % of positive control (EGF + FGF4 + PDGF-A + VEGF): 31.35% | Sox17 Expression, Average Total Intensity (EGF + FGF4 + PDGF-A + VEGF): 5.01E+07 | Cell Number, % of positive control (EGF + FGF4 + PDGF-AB): 119.83% | Cell Number, Average Total Cell Number (EGF + FGF4 + PDGF-AB): 12532 | Sox17 Expression, % of positive control (EGF + FGF4 + PDGF-AB): 68.41% | Sox17 Expression, Average Total Intensity (EGF + FGF4 + PDGF-AB): 1.09E+08 | Cell Number, % of positive control [1]: 151.18% | Cell Number, Average Total Cell Number [1]: 15811 | Sox17 Expression, % of positive control [1]: 4.32% | Sox17 Expression, Average Total Intensity [1]: 6.90E+06 | Cell Number, % of positive control (EGF + PDGF-A + VEGF): 112.84% | Cell Number, Average Total Cell Number (EGF + PDGF-A + VEGF): 11801 | Sox17 Expression, % of positive control (EGF + PDGF-A + VEGF): 2.53% | Sox17 Expression, Average Total Intensity (EGF + PDGF-A + VEGF): 4.04E+06 | Cell Number, % of positive control (FGF4 + PDGF-A + VEGF): 145.93% | Cell Number, Average Total Cell Number (FGF4 + PDGF-A + VEGF): 15262 | Sox17 Expression, % of positive control (FGF4 + PDGF-A + VEGF): 7.18% | Sox17 Expression, Average Total Intensity (FGF4 + PDGF-A + VEGF): 1.15E+07

CCN1CC(=O)NCCCc2cncc(c2)-c2ncnc(n2)Nc2cc(Cl)cc(c2)C1 [Compound 35, 10-Chloro-14-ethyl-3,5,7,14,17,23,27-heptaazatetracyclo[19.3.1.1˜2,6˜0.1˜8,12]Theptacosa-1(25), 2(27), 3,5,8(26), 9,11,21,23-nonaen-16-one]
Cell Number, % of positive control (EGF): 228.40% | Cell Number, Average Total Cell Number (EGF): 23887 | Sox17 Expression, % of positive control (EGF): −6.32% | Sox17 Expression, Average Total Intensity (EGF): −1.01E+07 | Cell Number, % of positive control (EGF + FGF4): 203.36% | Cell Number, Average Total Cell Number (EGF + FGF4): 21268 | Sox17 Expression, % of positive control (EGF + FGF4): 0.85% | Sox17 Expression, Average Total Intensity (EGF + FGF4): 1.36E+06 | Cell Number, % of positive control (EGF + FGF4 + PDGF-A + Muscimol): 147.80% | Cell Number, Average Total Cell Number (EGF + FGF4 + PDGF-A + Muscimol): 15457 | Sox17 Expression, % of positive control (EGF + FGF4 + PDGF-A + Muscimol): 43.15% | Sox17 Expression, Average Total Intensity (EGF + FGF4 + PDGF-A + Muscimol): 6.89E+07 | Cell Number, % of positive control (EGF + FGF4 + PDGF-A + VEGF): 154.25% | Cell Number, Average Total Cell Number (EGF + FGF4 + PDGF-A + VEGF): 16132 | Sox17 Expression, % of positive control (EGF + FGF4 + PDGF-A + VEGF): 57.04% | Sox17 Expression, Average Total Intensity (EGF + FGF4 + PDGF-A + VEGF): 9.11E+07 | Cell Number, % of positive control (EGF + FGF4 + PDGF-AB): 168.39% | Cell Number, Average Total Cell Number (EGF + FGF4 + PDGF-AB): 17611 | Sox17 Expression, % of positive control (EGF + FGF4 + PDGF-AB): 8.03% | Sox17 Expression, Average Total Intensity (EGF + FGF4 + PDGF-AB): 1.28E+07 | Cell Number, % of positive control [1]: 171.62% | Cell Number, Average Total Cell Number [1]: 17949 | Sox17 Expression, % of positive control [1]: 0.96% | Sox17 Expression, Average Total Intensity [1]: 1.54E+06 | Cell Number, % of positive control (EGF + PDGF-A + VEGF): 222.23% | Cell Number, Average Total Cell Number (EGF + PDGF-A + VEGF): 23242 | Sox17 Expression, % of positive control (EGF + PDGF-A + VEGF): 7.72% | Sox17 Expression, Average Total Intensity (EGF + PDGF-A + VEGF): 1.23E+07 | Cell Number, % of positive control (FGF4 + PDGF-A + VEGF): 153.63% | Cell Number, Average Total Cell Number (FGF4 + PDGF-A + VEGF): 16068 | Sox17 Expression, % of positive control (FGF4 + PDGF-A + VEGF): 24.57% | Sox17 Expression, Average Total Intensity (FGF4 + PDGF-A + VEGF): 3.92E+07

O=C1NCCCc2cncc(c2)-c2ncnc(n2)Nc2cc(Cl)cc(c2)CN2CCCC1C2 (stereo not shown) [Compound 37, 10-Chloro-3,5,7,14,20,26,31-heptaazapentacyclo[22.3.1.1˜2,6˜0.1˜8,12˜0.1˜14,18˜]hentriaconta-1(28), 2(31), 3,5,8(30), 9,11,24,26-nonaen-19-one]
Cell Number, % of positive control (EGF): 76.17% | Cell Number, Average Total Cell Number (EGF): 7966 | Sox17 Expression, % of positive control (EGF): −7.42% | Sox17 Expression, Average Total Intensity (EGF): −1.19E+07 | Cell Number, % of positive control (EGF + FGF4): 66.28% | Cell Number, Average Total Cell Number (EGF + FGF4): 6932 | Sox17 Expression, % of positive control (EGF + FGF4): −2.89% | Sox17 Expression, Average Total Intensity (EGF + FGF4): −4.62E+06 | Cell Number, % of positive control (EGF + FGF4 + PDGF-A + Muscimol): 55.66% | Cell Number, Average Total Cell Number (EGF + FGF4 + PDGF-A + Muscimol): 5821 | Sox17 Expression, % of positive control (EGF + FGF4 + PDGF-A + Muscimol): −7.64% | Sox17 Expression, Average Total Intensity (EGF + FGF4 + PDGF-A + Muscimol): −1.22E+07 | Cell Number, % of positive control (EGF + FGF4 + PDGF-A + VEGF): 83.93% | Cell Number, Average Total Cell Number (EGF + FGF4 + PDGF-A + VEGF): 8778 | Sox17 Expression, % of positive control (EGF + FGF4 + PDGF-A + VEGF): 0.09% | Sox17 Expression, Average Total Intensity (EGF + FGF4 + PDGF-A + VEGF): 1.39E+05 | Cell Number, % of positive control (EGF + FGF4 + PDGF-AB): 71.46% | Cell Number, Average Total Cell Number (EGF + FGF4 + PDGF-AB): 7473 | Sox17 Expression, % of positive control (EGF + FGF4 + PDGF-AB): −1.63% | Sox17 Expression, Average Total Intensity (EGF + FGF4 + PDGF-AB): −2.61E+06 | Cell Number, % of positive control [1]: 75.67% | Cell Number, Average Total Cell Number [1]: 7914 | Sox17 Expression, % of positive control [1]: −1.20% | Sox17 Expression, Average Total Intensity [1]: −1.91E+06 | Cell Number, % of positive control (EGF + PDGF-A + VEGF): 123.88% | Cell Number, Average Total Cell Number (EGF + PDGF-A + VEGF): 12956 | Sox17 Expression, % of positive control (EGF + PDGF-A + VEGF): −7.82% | Sox17 Expression, Average Total Intensity (EGF + PDGF-A + VEGF): −1.25E+07 | Cell Number, % of positive control (FGF4 + PDGF-A + VEGF): 64.36% | Cell Number, Average Total Cell Number (FGF4 + PDGF-A + VEGF): 6731 | Sox17 Expression, % of positive control (FGF4 + PDGF-A + VEGF): −6.89% | Sox17 Expression, Average Total Intensity (FGF4 + PDGF-A + VEGF): −1.10E+07
